According to patent US9073864B2, “Aromatic ring compound” (TAKEDA PHARMACEUTICAL COMPANY LIMITED, priority 2012, dated 2015):

Key:
Wistar fatty rat = assay: Hypoglycemic action in Wistar fatty rat (single administration); assay type: in vivo; settings: 10 mg/kg oral, 4 hr after administration, male Wistar fatty rats, change relative to non-administration group
Method: Hypoglycemic Action in Wistar Fatty Rat (Single Administration)
Wistar fatty rats (male, 25- to 26-week-old) were orally administered with a 0.5% methylcellulose suspension containing a test compound (10 mg/kg body weight) (test compound administration group, 4-6 per group) or 0.5% methylcellulose solution (test compound non-administration group, 4-6 per group), blood samples were collected from the rat tail vein 4 hr after the administration, and the hypoglycemic action was evaluated using the blood. The blood glucose was measured using Model 7180 HITACHI automatic analyzer (Hitachi, Ltd.).
In each animal of the test compound administration group and the test compound non-administration group, changes in the blood glucose level from that before administration was calculated, the difference between the “average change of test compound non-administration group” and the “change in each animal of test compound administration group” was calculated as the “change in blood glucose due to test compound”, and the average of each group was taken as the “blood glucose change value (mg/dL)”.

[1] = target: T1, human type glucagon receptor (Homo sapiens, UniProt P47871); assay: Measurement of glucagon binding inhibitory activity ([125I]-glucagon, receptor membrane protein); settings: test compound 10 μM; 0.4% DMSO alone = 0%, unlabeled glucagon 1 μM = 100%; read-out: inhibitory rate (%) at 10 μM
T1 construct: an about 1.4 kb DNA fragment containing glucagon receptor gene was recovered from the gel; expressed in transfected cells; host or cells: FreeStyle CHO cells (transient expression); membrane fraction prepared by homogenisation and ultracentrifugation
Method: The glucagon binding inhibitory action of the compound of the present invention was evaluated by the following method.
(1) Cloning of Human Glucagon Receptor Gene
Human glucagon receptor gene was cloned by PCR reaction using human pancreas Marathon-ready cDNA (Clontech Laboratories, Inc.) as a template and the following primer set.
The PCR reaction was performed using Advantage 2 polymerase (Clontech Laboratories, Inc.) and according to the attached protocol. The obtained PCR product was subjected to agarose gel (1%) electrophoresis, an about 1.4 kb DNA fragment containing glucagon receptor gene was recovered from the gel, and digested with restriction enzymes EcoRI and NotI. The restriction enzyme-treated DNA was subjected to agarose gel (1%) electrophoresis, an about 1.4 kb DNA fragment was recovered and ligated with plasmid pMSRaneo digested with restriction enzymes EcoRI and NotI to give human type glucagon receptor expression plasmid DNA “pMSRaneo/hGCGR”. The base sequence of the inserted fragment was confirmed to be identical with the object sequence.
(2) Preparation of Glucagon Receptor Membrane Protein
Human type glucagon receptor was expressed using FreeStyle CHO Expression System (Invitrogen™). According to the manual attached to the FreeStyle CHO Expression System, and using the human type glucagon receptor expression plasmid DNA “pMSRaneo/hGCGR” produced in the above-mentioned (1), transient expression was performed by FreeStyle CHO cells. The above-mentioned DNA was transfected, and shaking culture was performed at 37° C., 8% CO2, 125 rpm for 2 days. The culture medium was centrifuged at 2,000 rpm for 10 min and the cells were recovered. The recovered cells were washed with PBS, suspended in homogenate buffer [10 mM NaHCO3 (pH 7.4), 1 mM EDTA, complete EDTA-free (Roche, Ltd., 1 tablet/50 ml)], and the cells were disrupted by a Polytron cell disruption apparatus (Kinematica AG). The disruption solution was centrifuged at 2,000 rpm for 10 min, and the supernatant was recovered. The supernatant was centrifuged at 35,000 rpm for 60 min, and the precipitate was suspended in a buffer [20 mM Tris-HCl (pH 7.4), 5 mM EDTA, complete EDTA-free (Roche, Ltd., 1 tablet/50 ml)] to give a glucagon receptor membrane protein.
(3) Measurement of Glucagon Binding Inhibitory Activity
The reaction was started by adding 50 μl of a glucagon receptor membrane protein solution diluted with a reaction buffer [50 mM HEPES (pH 7.4), 5 mM EGTA, 5 mM magnesium chloride, 0.1% BSA, 0.005% Tween20] to 100 μg/ml, 25 μl of a test compound solution containing 0.4% DMSO, which solution was prepared with the reaction buffer to a compound concentration of 40 μM, and 25 μl of radiolabeled glucagon ([^125I]-Receptor Grade Glucagon; Perkin Elmer Inc.) diluted with the reaction buffer to 200 pM to each well of a 96 well plate (Corning Incorporated). The plate was stood at room temperature for 90 min, then the reaction solution was transferred from the reaction plate onto a 96 well unifilter GF/C plate (Perkin Elmer Inc.) by a cell harvester (Perkin Elmer Inc.), and suctioned to collect a membrane fraction on the filter. The filter was immersed in a 0.3% polyethyleneimine solution in advance to prevent non-specific adsorption of the labeled ligand. The filter was washed 4 times with the reaction buffer, and dried at 42° C. for 2 hr. To each well was added 25 μl of scintillator (MicroScint0; Perkin Elmer Inc.), and the amount of fluorescence was measured by a microplate scintillation counter (TopCount NXT™; Perkin Elmer Inc.).
The inhibitory rate (%) of the well added with the test compound (10 μM; containing 0.4% DMSO solution) was calculated wherein the reaction rate of the well added with 0.4% DMSO alone was 0% inhibitory rate and that of the well added with unlabeled glucagon (final concentration 1 μM) was 100% inhibitory rate.

[2] = tested on: streptozotocin (STZ)-induced type 1 diabetes model rat; assay: Suppressive action on hyperglycemia after eating in STZ-induced type 1 diabetes model rat bred with time-limited feeding; assay type: in vivo; settings: 10 mg/kg p.o. q.d., detemir 10 U/kg s.c., n=8; for average plasma glucose concentration, 1 hr: 1 hr after administration and start of feeding; for average plasma glucose concentration, 2 hr: 2 hr after administration (immediately before end of feeding); for average plasma glucose concentration, value before administration: next day of 3 days repeated compound administration, immediately before feeding and dosing
Method: Suppressive Action on Hyperglycemia after Eating in Streptozotocin (STZ)-Induced Type 1 Diabetes Model Rat Bred with Time-Limited Feeding
Type 1 diabetes model STZ rat was generated by intravenously administering streptozotocin (STZ: Wako Pure Chemical Industries, Ltd., 65 mg/kg) after overnight fasting. From 1 week after the STZ treatment, time-limited feeding (feeding twice per day for 2 hours each time at 9:00-11:00 am and 16:00-18:00 pm) was started. On day 6 of breeding with time-limited feeding, blood samples were collected immediately before feeding in the morning and after 2 hours of feeding (immediately before end of feeding), and the rats were divided into two groups of detemir (long-acting insulin preparation) treatment group and detemir non-treatment group, with an increase in the plasma glucose concentration associated with the feed intake as an index. In the detemir treatment group, repeated subcutaneous administration of detemir (10 U/kg body weight, Novo Nordisk Pharma Ltd., once per day) was started after the end of feeding in the afternoon, and continued for 7 days until one day before evaluation of the influence of compound administration. Similarly, the detemir non-treatment group was subcutaneously administered repeatedly with saline for 7 days.
The day after repeated administration of detemir for 3 days, blood samples were collected in the same manner as above, and the animals in the detemir treatment group were divided into 3 groups based on an increase in the plasma glucose concentration associated with the feed intake. Each group was orally administered repeatedly with a 0.5% methylcellulose (MC) suspension containing the compound of Example 3 or 21 (10 mg/kg, q.d.) (8 per each group), or 0.5% methylcellulose solution (compound non-administration group, 8) for 4 days before feeding in the morning, starting from the next day of repeated administration of detemir for 4 days.
The next day of repeated administration of detemir for 7 days (the next day of repeated administration of compound for 3 days), blood samples were collected immediately before the start of feeding (and each compound administration) in the morning to obtain values before administration. Also, blood samples were collected after 1 and 2 hours of the administration (immediately before end of feeding), and an influence of compound administration on the profile of plasma glucose concentration after feed intake was evaluated.
Throughout the test, blood samples were collected from the tail vein, and the plasma glucose concentration was measured using Model 7180 HITACHI automatic analyzer.

T1 sequence (P47871 26-477): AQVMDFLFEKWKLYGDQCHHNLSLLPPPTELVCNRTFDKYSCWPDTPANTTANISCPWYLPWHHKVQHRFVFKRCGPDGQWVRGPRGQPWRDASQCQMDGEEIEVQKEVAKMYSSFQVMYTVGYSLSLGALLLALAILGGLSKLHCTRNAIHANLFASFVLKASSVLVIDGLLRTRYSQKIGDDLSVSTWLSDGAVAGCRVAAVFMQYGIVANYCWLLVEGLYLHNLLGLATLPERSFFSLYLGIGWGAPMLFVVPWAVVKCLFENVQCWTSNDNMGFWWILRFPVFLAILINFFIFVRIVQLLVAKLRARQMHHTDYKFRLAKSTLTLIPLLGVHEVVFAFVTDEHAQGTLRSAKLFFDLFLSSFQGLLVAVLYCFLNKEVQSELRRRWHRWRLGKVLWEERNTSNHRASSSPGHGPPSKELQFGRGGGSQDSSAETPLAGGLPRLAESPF

inhibition at 10 µM [1] [%]	Structure (SMILES)	blood glucose change value (Wistar fatty rat) [mg/dL]	average plasma glucose concentration, 1 hr [2] [mg/dL]	average plasma glucose concentration, 2 hr [2] [mg/dL]	average plasma glucose concentration, value before administration [2] [mg/dL]
91	Cc1cc(-c2ncc(C(F)(F)F)cn2)ccc1C(CCC(F)(F)F)Nc1ccc(C(=O)N2CCC[C@@H](C(=O)O)C2)cc1 (stereo partly drawn) [Example 3, (3R)-1-(4-((4,4,4-trifluoro-1-(2-methyl-4-(5-(trifluoromethyl)pyrimidin-2-yl)phenyl)butyl)amino)benzoyl)piperidine-3-carboxylic acid]	-142.5	463.6	555.2	397.0
95	CCc1cnc(-c2ccc(C(CCC(F)(F)F)Nc3ccc(C(=O)N4CCC[C@@H](C(=O)O)C4)cc3)c(C)c2)nc1 (stereo partly drawn) [Example 4, (3R)-1-(4-((1-(4-(5-ethylpyrimidin-2-yl)-2-methylphenyl)-4,4,4-trifluorobutyl)amino)benzoyl)piperidine-3-carboxylic acid]	-130.4	–	–	–
90	Cc1cc(-n2cc3c(n2)CCCC3)ccc1C(CCC(F)(F)F)Nc1ccc(C(=O)N2CCC[C@@H](C(=O)O)C2)cc1 (stereo partly drawn) [Example 21, (3R)-1-(4-((4,4,4-trifluoro-1-(2-methyl-4-(4,5,6,7-tetrahydro-2H-indazol-2-yl)phenyl)butyl)amino)benzoyl)piperidine-3-carboxylic acid]	-136.0	471.1	552.0	435.6
88	Cc1cc(-c2ccc(C(F)(F)F)cn2)ccc1C(Nc1ccc(C(=O)N2CCC[C@@H](C(=O)O)C2)cc1)C(C)C (stereo partly drawn) [Example 26, (3R)-1-(4-((2-methyl-1-(2-methyl-4-(5-(trifluoromethyl)pyridin-2-yl)phenyl)propyl)amino)benzoyl)piperidine-3-carboxylic acid]	–	–	–	–

Second part, the compound before the results:

Structure (SMILES)	inhibition at 10 µM [1] [%]	blood glucose change value (Wistar fatty rat) [mg/dL]	average plasma glucose concentration, 1 hr [2] [mg/dL]	average plasma glucose concentration, 2 hr [2] [mg/dL]	average plasma glucose concentration, value before administration [2] [mg/dL]
Cc1cc(-c2ccc(C(F)(F)F)cn2)ccc1C(CCC(F)(F)F)Nc1ccc(C(=O)N2CCC[C@@H](C(=O)O)C2)cc1 (stereo partly drawn) [Example 1, (3R)-1-(4-((4,4,4-trifluoro-1-(2-methyl-4-(5-(trifluoromethyl)pyridin-2-yl)phenyl)butyl)amino)benzoyl)piperidine-3-carboxylic acid]	84	-162.9	–	–	–
Cc1cc(-c2ncc(Cl)cn2)ccc1C(CCC(F)(F)F)Nc1ccc(C(=O)N2CCC[C@@H](C(=O)O)C2)cc1 (stereo partly drawn) [Example 2, (3R)-1-(4-((1-(4-(5-chloropyrimidin-2-yl)-2-methylphenyl)-4,4,4-trifluorobutyl)amino)benzoyl)piperidine-3-carboxylic acid]	92	-149.8	–	–	–
O=C(O)[C@@H]1CCCN(C(=O)c2ccc(NC(CCC(F)(F)F)c3ccc(-c4ccc(Cl)cc4)cc3)cc2)C1 (stereo partly drawn) [Example 27, (3R)-1-(4-((1-(4′-chlorobiphenyl-4-yl)-4,4,4-trifluorobutyl)amino)benzoyl)piperidine-3-carboxylic acid]	86	–	–	–	–
O=C(O)[C@@H]1CCCN(C(=O)c2ccc(NC(CCC(F)(F)F)c3ccc(-c4ccc(Cl)cc4)cc3)nc2)C1 (stereo partly drawn) [Example 28, (3R)-1-((6-((1-(4′-chlorobiphenyl-4-yl)-4,4,4-trifluorobutyl)amino)pyridin-3-yl)carbonyl)piperidine-3-carboxylic acid]	98	–	–	–	–
CCc1cnc(-c2ccc(C(Nc3ccc(C(=O)N4CCC[C@@H](C(=O)O)C4)cc3)C(C)C)c(C)c2)nc1 (stereo partly drawn) [Example 112, (3R)-1-(4-((1-(4-(5-ethylpyrimidin-2-yl)-2-methylphenyl)-2-methylpropyl)amino)benzoyl)piperidine-3-carboxylic acid]	90	–	–	–	–
Cc1cc(-n2cc3c(n2)CCCC3)ccc1C(Nc1ccc(C(=O)N2CCC[C@@H](C(=O)O)C2)cc1)C(C)C (stereo partly drawn) [Example 117, (3R)-1-(4-((2-methyl-1-(2-methyl-4-(4,5,6,7-tetrahydro-2H-indazol-2-yl)phenyl)propyl)amino)benzoyl)piperidine-3-carboxylic acid]	90	–	–	–	–
